# Test results reported in ChEMBL document CHEMBL1201861, “Genomics of Drug Sensitity in Cancer screening data, Wellcome Trust Sanger Institute”.
# Tested on: MDA-MB-175-VII
# Assay: cells
# Format: functional, cell-based, Homo sapiens
# Details: Homo sapiens, MDA-MB-175-VII
row,Compound,IC50
1,CN(C)C(=N)NC(=N)N [METFORMIN],> 20000 µM

# Same assay, conditions: mda-mb-175-vii
row,Compound,IC50
1,CISPLATIN,69.7 µM

# Tested on: YAPC;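 further: growth inhibition of YAPC cells, measured with a cell viability assay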
# Assay: cells
# Format: functional, cell-based, Homo sapiens
# Details: Homo sapiens, YAPC
# Description: SANGER: Inhibition of human YAPC cell growth in a cell viability assay.
row,Compound,IC50
1,CN(C)C(=N)NC(=N)N [METFORMIN],> 20000 µM

# Same assay, conditions: yapc
row,Compound,IC50
1,CISPLATIN,1160 µM

# Tested on: GCT;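 further: GCT cell line proliferation inhibition, read out with a cell viability assay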
# Assay: cells
# Format: functional, cell-based, Homo sapiens
# Details: gct
# Description: SANGER: Inhibition of human GCT cell growth in a cell viability assay.
row,Compound,IC50
1,CISPLATIN,6.12 µM

# Tested on: SK-MEL3;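 further: growth inhibition of human SK-MEL-3 cells, read out with a cell viability assay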
# Assay: cells
# Format: functional, cell-based, Homo sapiens, SK-MEL-3
# Details: sk-mel-3
# Description: SANGER: Inhibition of human SK-MEL-3 cell growth in a cell viability assay.
row,Compound,IC50
1,CISPLATIN,684 µM

# Tested on: MKN-28;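 further: cell viability assay read-out, IC50 reflects suppression of growth of human MKN-28 cells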
# Assay: cells
# Format: functional, cell-based, Homo sapiens
# Details: Homo sapiens, MKN-28
# Description: SANGER: Inhibition of human MKN28 cell growth in a cell viability assay.
row,Compound,IC50
1,CN(C)C(=N)NC(=N)N [METFORMIN],> 20000 µM

# Same assay, conditions: mkn-28
row,Compound,IC50
1,CISPLATIN,31.4 µM

# Tested on: CAL-85-1;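 further: growth inhibition of human CAL-85-1 cells, read out with a cell viability assay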
# Assay: cells
# Format: functional, cell-based, Homo sapiens
# Details: cal-85-1
# Description: SANGER: Inhibition of human CAL-85-1 cell growth in a cell viability assay.
row,Compound,IC50
1,CISPLATIN,732 µM

# Tested on: C32;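 further: cell viability assay, with IC50 reflecting inhibition of C32 cell growth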
# Assay: cells
# Format: functional, cell-based, Homo sapiens
# Details: Homo sapiens, C32
# Description: SANGER: Inhibition of human C32 cell growth in a cell viability assay.
row,Compound,IC50
1,CN(C)C(=N)NC(=N)N [METFORMIN],> 20000 µM

# Same assay, conditions: c32
row,Compound,IC50
1,CISPLATIN,6.38 µM

# Tested on: MDA-MB-361
# Assay: cells
# Format: functional, cell-based, Homo sapiens
# Details: Homo sapiens, MDA-MB-361
row,Compound,IC50
1,CN(C)C(=N)NC(=N)N [METFORMIN],> 20000 µM

# Same assay, conditions: mda-mb-361
row,Compound,IC50
1,CISPLATIN,18.5 µM

# Tested on: DoTc2-4510
# Assay: cells
# Format: functional, cell-based, Homo sapiens
# Details: Homo sapiens, DoTc2-4510
row,Compound,IC50
1,CN(C)C(=N)NC(=N)N [METFORMIN],> 20000 µM

# Same assay, conditions: dotc2-4510
row,Compound,IC50
1,CISPLATIN,63.6 µM

# Tested on: NUGC-3;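 further: growth inhibition of human NUGC-3 cells, read out with a cell viability assay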
# Assay: cells
# Format: functional, cell-based, Homo sapiens
# Details: nugc-3
# Description: SANGER: Inhibition of human NUGC-3 cell growth in a cell viability assay.
row,Compound,IC50
1,CISPLATIN,2.14 µM

# Tested on: SW1573;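 further: growth inhibition of SW1573 cells, read out with a cell viability assay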
# Assay: cells
# Format: functional, cell-based, Homo sapiens
# Details: Homo sapiens, SW1573
# Description: SANGER: Inhibition of human SW1573 cell growth in a cell viability assay.
row,Compound,IC50
1,CN(C)C(=N)NC(=N)N [METFORMIN],> 20000 µM

# Same assay, conditions: sw1573
row,Compound,IC50
1,CISPLATIN,43.3 µM

# Tested on: D-542MG
# Assay: cells
# Format: functional, cell-based, Homo sapiens
# Details: d-542mg
# Description: SANGER: Inhibition of human D-542MG cell growth in a cell viability assay.
row,Compound,IC50
1,CISPLATIN,3.26 µM

# Tested on: LoVo;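 further: growth inhibition of human LoVo cells, read out with a cell viability assay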
# Assay: cells
# Format: functional, cell-based, Homo sapiens
# Details: Homo sapiens, LoVo
# Description: SANGER: Inhibition of human LoVo cell growth in a cell viability assay.
row,Compound,IC50
1,CN(C)C(=N)NC(=N)N [METFORMIN],> 20000 µM

# Same assay, conditions: lovo
row,Compound,IC50
1,CISPLATIN,58.2 µM

# Tested on: HSC-4;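 further: growth inhibition of human HSC-4 cells, read out with a cell viability assay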
# Assay: cells
# Format: functional, cell-based, Homo sapiens
# Details: Homo sapiens, HSC-4
# Description: SANGER: Inhibition of human HSC-4 cell growth in a cell viability assay.
row,Compound,IC50
1,CN(C)C(=N)NC(=N)N [METFORMIN],5480 µM

# Same assay, conditions: hsc-4
row,Compound,IC50
1,CISPLATIN,1.58 µM

# Tested on: NCI-H650;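 further: growth inhibition of NCI-H650 cells, read out by a viability assay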
# Assay: cells
# Format: functional, cell-based, Homo sapiens
# Details: nci-h650
# Description: SANGER: Inhibition of human NCI-H650 cell growth in a cell viability assay.
row,Compound,IC50
1,CISPLATIN,29.9 µM

# Tested on: A-375;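 further: growth inhibition of A375 cells, read out with a cell viability assay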
# Assay: cells
# Format: functional, cell-based, Homo sapiens
# Details: a-375
# Description: SANGER: Inhibition of human A375 cell growth in a cell viability assay.
row,Compound,IC50
1,CISPLATIN,535 µM

# Tested on: DMS-273
# Assay: cells
# Format: functional, cell-based, Homo sapiens
# Details: Homo sapiens, DMS-273
# Description: SANGER: Inhibition of human DMS-273 cell growth in a cell viability assay.
row,Compound,IC50
1,CN(C)C(=N)NC(=N)N [METFORMIN],13600 µM

# Same assay, conditions: dms-273
row,Compound,IC50
1,CISPLATIN,9.7 µM

# Tested on: ME-180;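 further: cell viability assay measuring growth inhibition of ME-180 cells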
# Assay: cells
# Format: functional, cell-based, Homo sapiens
# Details: Homo sapiens, ME-180
# Description: SANGER: Inhibition of human ME-180 cell growth in a cell viability assay.
row,Compound,IC50
1,CN(C)C(=N)NC(=N)N [METFORMIN],> 20000 µM

# Same assay, conditions: me-180
row,Compound,IC50
1,CISPLATIN,55.2 µM

# Tested on: SiHa;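 further: Viability-based readout of growth inhibition in SiHa cells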
# Assay: cells
# Format: functional, cell-based, Homo sapiens
# Details: Homo sapiens, SiHa
# Description: SANGER: Inhibition of human SiHa cell growth in a cell viability assay.
row,Compound,IC50
1,CN(C)C(=N)NC(=N)N [METFORMIN],> 20000 µM

# Same assay, conditions: siha
row,Compound,IC50
1,CISPLATIN,17 µM

# Tested on: GAMG;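 further: cell growth inhibition measured by a viability assay in the GAMG human cell line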
# Assay: cells
# Format: functional, cell-based, Homo sapiens
# Details: Homo sapiens, GAMG
# Description: SANGER: Inhibition of human GAMG cell growth in a cell viability assay.
row,Compound,IC50
1,CN(C)C(=N)NC(=N)N [METFORMIN],> 20000 µM

# Same assay, conditions: gamg
row,Compound,IC50
1,CISPLATIN,289 µM

# Tested on: HuCCT-1;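 further: growth inhibition of HuCCT-1 cells, read out by a cell viability assay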
# Assay: cells
# Format: functional, cell-based, Homo sapiens, HuCCT1
# Details: Homo sapiens, HuCCT-1
# Description: SANGER: Inhibition of human HuCCT1 cell growth in a cell viability assay.
row,Compound,IC50
1,CN(C)C(=N)NC(=N)N [METFORMIN],> 20000 µM

# Same assay, conditions: hucct1
row,Compound,IC50
1,CISPLATIN,70.1 µM

# Tested on: HCC1419;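 further: growth inhibition of human HCC1419 cells, read out as cell viability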
# Assay: cells
# Format: functional, cell-based, Homo sapiens
# Details: Homo sapiens, HCC1419
# Description: SANGER: Inhibition of human HCC1419 cell growth in a cell viability assay.
row,Compound,IC50
1,CN(C)C(=N)NC(=N)N [METFORMIN],> 20000 µM

# Same assay, conditions: hcc1419
row,Compound,IC50
1,CISPLATIN,29.5 µM

# Tested on: OE33;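 further: growth inhibition of human OE33 cells, measured by a cell viability assay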
# Assay: cells
# Format: functional, cell-based, Homo sapiens
# Details: oe33
# Description: SANGER: Inhibition of human OE33 cell growth in a cell viability assay.
row,Compound,IC50
1,CISPLATIN,22.5 µM

# Tested on: SCC-25;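 further: growth inhibition of SCC-25 cells, measured with a cell viability assay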
# Assay: cells
# Format: functional, cell-based, Homo sapiens
# Details: Homo sapiens, SCC-25
# Description: SANGER: Inhibition of human SCC-25 cell growth in a cell viability assay.
row,Compound,IC50
1,CN(C)C(=N)NC(=N)N [METFORMIN],12200 µM

# Same assay, conditions: scc-25
row,Compound,IC50
1,CISPLATIN,64.6 µM

# Tested on: EGI-1;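 further: cell viability readout used to gauge growth inhibition of EGI-1 cells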
# Assay: cells
# Format: functional, cell-based, Homo sapiens
# Details: egi-1
# Description: SANGER: Inhibition of human EGI-1 cell growth in a cell viability assay.
row,Compound,IC50
1,CISPLATIN,11.1 µM

# Tested on: A549;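 further: growth inhibition of A549 cells, read out with a cell viability assay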
# Assay: cells
# Format: functional, cell-based, Homo sapiens
# Details: Homo sapiens, A549
# Description: SANGER: Inhibition of human A549 cell growth in a cell viability assay.
row,Compound,IC50
1,CN(C)C(=N)NC(=N)N [METFORMIN],4540 µM

# Same assay, conditions: a549
row,Compound,IC50
1,CISPLATIN,18.8 µM

# Tested on: A2780;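 further: growth inhibition of A2780 cells, read out with a cell viability assay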
# Assay: cells
# Format: functional, cell-based, Homo sapiens
# Details: Homo sapiens, A2780
# Description: SANGER: Inhibition of human A2780 cell growth in a cell viability assay.
row,Compound,IC50
1,CN(C)C(=N)NC(=N)N [METFORMIN],4880 µM

# Same assay, conditions: a2780
row,Compound,IC50
1,CISPLATIN,6.39 µM

# Tested on: SBC-5;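 further: cell viability assay read-out, IC50 is the concentration that inhibits growth of the cells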
# Assay: cells
# Format: functional, cell-based, Homo sapiens
# Details: Homo sapiens, SBC-5
# Description: SANGER: Inhibition of human SBC-5 cell growth in a cell viability assay.
row,Compound,IC50
1,CN(C)C(=N)NC(=N)N [METFORMIN],17100 µM

# Same assay, conditions: sbc-5
row,Compound,IC50
1,CISPLATIN,70.1 µM

# Tested on: PC-3;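 further: cell viability assay measuring growth inhibition of PC-3 cells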
# Assay: cells
# Format: functional, cell-based, Homo sapiens
# Details: Homo sapiens, PC-3
# Description: SANGER: Inhibition of human PC-3 cell growth in a cell viability assay.
row,Compound,IC50
1,CN(C)C(=N)NC(=N)N [METFORMIN],> 20000 µM

# Same assay, conditions: pc-3
row,Compound,IC50
1,CISPLATIN,96.7 µM

# Tested on: H4
# Assay: cells
# Format: functional, cell-based, Homo sapiens
# Details: Homo sapiens, H4
# Description: SANGER: Inhibition of human H4 cell growth in a cell viability assay.
row,Compound,IC50
1,CN(C)C(=N)NC(=N)N [METFORMIN],> 20000 µM

# Same assay, conditions: h4
row,Compound,IC50
1,CISPLATIN,4.71 µM

# Tested on: BFTC-909
# Assay: cells
# Format: functional, cell-based, Homo sapiens
# Details: Homo sapiens, BFTC-909
# Description: SANGER: Inhibition of human BFTC-909 cell growth in a cell viability assay.
row,Compound,IC50
1,CN(C)C(=N)NC(=N)N [METFORMIN],> 20000 µM

# Same assay, conditions: bftc-909
row,Compound,IC50
1,CISPLATIN,14.9 µM

# Tested on: KYSE-270;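 further: cell growth inhibition measured with a viability assay in the human KYSE-270 line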
# Assay: cells
# Format: functional, cell-based, Homo sapiens
# Details: Homo sapiens, KYSE-270
# Description: SANGER: Inhibition of human KYSE-270 cell growth in a cell viability assay.
row,Compound,IC50
1,CN(C)C(=N)NC(=N)N [METFORMIN],> 20000 µM

# Same assay, conditions: kyse-270
row,Compound,IC50
1,CISPLATIN,9.08 µM
